Laboratory results: patent publication US11866433B2, “Diarylthiohydantoin compound as androgen receptor antagonist” (CHIA TAI TIANQING PHARMACEUTICAL GROUP CO., LTD., priority 2017, dated 2024)

Target: T1, androgen receptor (AR) (Homo sapiens, UniProt P10275)
T1 sequence (P10275 1-920): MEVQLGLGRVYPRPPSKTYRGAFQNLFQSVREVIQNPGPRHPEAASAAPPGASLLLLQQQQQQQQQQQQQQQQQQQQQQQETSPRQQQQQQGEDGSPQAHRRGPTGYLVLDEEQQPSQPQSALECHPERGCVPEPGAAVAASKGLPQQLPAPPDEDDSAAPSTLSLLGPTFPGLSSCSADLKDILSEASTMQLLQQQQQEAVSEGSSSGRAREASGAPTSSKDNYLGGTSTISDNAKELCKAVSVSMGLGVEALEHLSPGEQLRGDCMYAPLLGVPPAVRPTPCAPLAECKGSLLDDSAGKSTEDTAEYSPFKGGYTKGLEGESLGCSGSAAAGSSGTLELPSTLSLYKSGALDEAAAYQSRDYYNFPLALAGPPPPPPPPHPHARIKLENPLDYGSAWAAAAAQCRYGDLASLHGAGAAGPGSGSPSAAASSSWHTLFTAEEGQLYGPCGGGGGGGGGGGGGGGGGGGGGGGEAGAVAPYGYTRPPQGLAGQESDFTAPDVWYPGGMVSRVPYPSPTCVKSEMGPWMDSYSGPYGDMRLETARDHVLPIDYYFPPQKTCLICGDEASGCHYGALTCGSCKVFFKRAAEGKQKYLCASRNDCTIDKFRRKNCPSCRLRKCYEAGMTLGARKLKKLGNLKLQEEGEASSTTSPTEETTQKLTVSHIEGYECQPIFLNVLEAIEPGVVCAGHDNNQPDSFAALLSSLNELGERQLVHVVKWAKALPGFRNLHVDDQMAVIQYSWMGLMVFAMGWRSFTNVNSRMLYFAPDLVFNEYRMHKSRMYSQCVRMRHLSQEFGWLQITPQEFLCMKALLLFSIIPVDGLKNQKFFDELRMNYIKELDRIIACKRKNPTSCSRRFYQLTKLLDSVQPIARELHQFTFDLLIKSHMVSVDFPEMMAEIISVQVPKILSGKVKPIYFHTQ
Experiment: Antagonism of compounds on nuclear translocation of androgen receptor (PathHunter NHR cell lines)
Type: cell-based
Conditions: antagonist mode, agonist 6a-Fluorotestosterone 0.06 μM (EC80)
Procedure: Example 75 Test of Antagonism of Compounds on Nuclear Translocation of Androgen Receptor (AR)
1. PathHunter NHR cell lines were recovered and cultured for amplification.
2. The cells were inoculated onto a 384-well plate prior to testing, and incubated at 37° C. The serum for culture was filtered with charcoal-dextran to reduce the hormone level therein.
3. In the detection of the antagonistic function, a compound was added to the cells and incubated for 60 min. The working concentration of the test compound was diluted from 10 μM at a 3-fold concentration gradient, respectively including: […]. Then, an agonist 6a-Fluorotestosterone 0.06 μM (concentration: EC80, i.e., 80% agonistic compound concentration) was added, and the mixture was incubated at 37° C. or at room temperature for 3-16 h.
4. Signal detection: 12.5 μL or 15 μL (50%, v/v) PathHunter detection mixed solution (kit: DiscoverX product catalog number: 93-0001 series) was added, and incubated at room temperature for 1 h. The chemiluminescent signal was read with a PerkinElmer Envision™ instrument.
5. Data analysis: The compound activity was analyzed with CBIS data analysis software (ChemInnovation, CA). The calculation formula of the inhibition percent of the antagonist is as follows: IC50 inhibition ratio (%)=[…]×(1−(average RLU value of the test compound−average RLU value of the blank control group)/(average RLU value of EC80 control group−average RLU value of the blank control group)).

| SMILES | IC50 [µM] |
| --- | --- |
| CCc1nc(OCC2(O)CC2)c2cc(N3C(=S)N(c4ccc(C#N)c(C(F)(F)F)c4)C(=O)C3(C)C)cc(F)c2n1 [Compound 36] | 5.65 |
| CC1(C)C(=O)N(c2ccc(C#N)c(C(F)(F)F)c2)C(=S)N1c1cc(F)c2ncnc(OCCO)c2c1 [Compound 13] | 6.02 |
| CCc1nc2ccc(N3C(=S)N(c4ccc(C#N)c(C(F)(F)F)c4)C(=O)C3(C)C)cn2c(=O)c1OC [Compound 31] | 3.8 |
| CC1(C)C(=O)N(c2ccc(C#N)c(C(F)(F)F)c2)C(=S)N1c1ccc2c(cnn2C2COCC2O)c1 (stereo not drawn) [Compound 7] | 4.26 |
| CC1(C)C(=O)N(c2cnc(C#N)c(C(F)(F)F)c2)C(=S)N1c1cc(F)c2nc(C(F)F)cc(=O)n2c1 [Compound 74] | 2.96 |
| CC1(C)C(=O)N(c2ccc(C#N)c(C(F)(F)F)c2)C(=S)N1c1ccc2c(=O)n(CC(F)(F)F)ncc2c1 [Compound 6] | 3.07 |
| COCCOc1cc(=O)n2cc(N3C(=S)N(c4ccc(C#N)c(C(F)(F)F)c4)C(=O)C3(C)C)cc(F)c2n1 [Compound 65] | 2.09 |
| CCc1cc(=O)n2cc(N3C(=S)N(c4ccc(C#N)c(C(F)(F)F)c4)C(=O)C3(C)C)cc(OC)c2n1 [Compound 57] | 5.47 |
| CCc1nc(OC2COC[C@H]2O)c2cc(N3C(=S)N(c4ccc(C#N)c(C(F)(F)F)c4)C(=O)C3(C)C)cc(F)c2n1 (stereo partly drawn) [Compound 44] | 3.76 |
| CCc1nc(OC2COC[C@@H]2O)c2cc(N3C(=S)N(c4ccc(C#N)c(C(F)(F)F)c4)C(=O)C3(C)C)cc(F)c2n1 (stereo partly drawn) [Compound 46] | 3.08 |
| CCOc1cc(=O)n2cc(N3C(=S)N(c4cnc(C#N)c(C(F)(F)F)c4)C(=O)C3(C)C)cc(F)c2n1 [Compound 64] | 2.81 |
| CNC(=O)c1ccc(-n2c(=S)n(-c3ccc(C#N)c(C(F)(F)F)c3)c3nccc(C)c32)cc1F [Compound 3] | 1.4 |
| CCc1nc(OCCO)c2cc(N3C(=S)N(c4ccc(C#N)c(C(F)F)c4)C(=O)C3(C)C)ccc2n1 [Compound 48] | 3.67 |
| CCc1nc2ccc(N3C(=S)N(c4ccc(C#N)c(C(F)(F)F)c4)C(=O)C3(C)C)cn2c(=O)c1OCCO [Compound 38] | 3.58 |
| CCc1nc2c(F)cc(N3C(=S)N(c4ccc(C#N)c(C(F)(F)F)c4)C(=O)C3(C)C)cn2c(=O)c1O [Compound 39] | 5.95 |
| CC1(C)C(=O)N(c2ccc(C#N)c(C(F)(F)F)c2)C(=S)N1c1cc(F)c2nc(C(F)F)nc(OCCO)c2c1 [Compound 21] | 1.89 |
| CC1(C)C(=O)N(c2ccc(C#N)c(C(F)(F)F)c2)C(=S)N1c1ccc2c(=O)n(CC(F)(F)F)cnc2c1 [Compound 5] | 3.65 |
| CC1(C)C(=O)N(c2ccc(C#N)c(C(F)(F)F)c2)C(=S)N1c1ccc2nc(C3CC3)nc(OCCO)c2c1 [Compound 11] | 1.14 |
| CCOc1cc(=O)n2cc(N3C(=S)N(c4ccc(C#N)c(C(F)(F)F)c4)C(=O)C3(C)C)cc(F)c2n1 [Compound 55] | 1.4 |
| CC1(C)C(=O)N(c2ccc(C#N)c(C(F)(F)F)c2)C(=S)N1c1ccc2ncnc(OCCO)c2c1 [Compound 12] | 3.26 |
| CCc1nc2ccc(-n3c(=S)n(-c4ccc(C#N)c(C(F)(F)F)c4)c4nccc(C)c43)cc2c(=O)[nH]1 [Compound 56] | 2.86 |
| COc1nc(OCCO)c2cc(N3C(=S)N(c4cnc(C#N)c(C(F)(F)F)c4)C(=O)C3(C)C)cc(F)c2n1 [Compound 73] | 2.13 |
| CCc1nc2c(F)cc(N3C(=S)N(c4ccc(C#N)c(C(F)(F)F)c4)C(=O)C3(C)C)cn2c(=O)c1OC [Compound 34] | 3.23 |
| CC1(C)C(=O)N(c2cnc(C#N)c(C(F)(F)F)c2)C(=S)N1c1cc(F)c2nc(C3CC3)nc(OCCO)c2c1 [Compound 23] | 1.15 |
| CCc1nc2ccc(N3C(=S)N(c4ccc(C#N)c(C(F)(F)F)c4)C(=O)C3(C)C)cn2c(=O)c1O [Compound 33] | 9.58 |
| CCc1nc(-c2cc[nH]n2)c2cc(N3C(=S)N(c4ccc(C#N)c(C(F)(F)F)c4)C(=O)C3(C)C)cc(F)c2n1 [Compound 52] | 1.23 |

| SMILES | IC50 [µM] |
| --- | --- |
| Cc1nc(OCCO)c2cc(N3C(=S)N(c4ccc(C#N)c(C(F)(F)F)c4)C(=O)C3(C)C)ccc2n1 [Compound 9] | 5.35 |
| CNc1ncnc2cc(N3C(=S)N(c4ccc(C#N)c(C(F)(F)F)c4)C(=O)C3(C)C)ccc12 [Compound 1] | > 10 |
| CCc1cc(=O)n2cc(N3C(=S)N(c4ccc(C#N)c(C(F)(F)F)c4)C(=O)C3(C)C)ccc2n1 [Compound 30] | 2.54 |
| CCOc1nc(OCCO)c2cc(N3C(=S)N(c4cnc(C#N)c(C(F)(F)F)c4)C(=O)C3(C)C)cc(F)c2n1 [Compound 72] | 2.41 |
| CCc1nc2c(F)cc(N3C(=S)N(c4ccc(C#N)c(C(F)(F)F)c4)C(=O)C3(C)C)cn2c(=O)c1F [Compound 47] | 2.57 |
| CNC(=O)c1ccc(-n2c(=S)n(-c3ccc(C#N)c(C(F)(F)F)c3)c3ncccc32)cc1F [Compound 2] | > 10 |
| CC1(C)C(=O)N(c2ccc(C#N)c(C(F)(F)F)c2)C(=S)N1c1ccc2nc(C(F)F)nc(OCCO)c2c1 [Compound 15] | 1.12 |
| COc1cc(=O)n2cc(N3C(=S)N(c4ccc(C#N)c(C(F)(F)F)c4)C(=O)C3(C)C)cc(F)c2n1 [Compound 68] | 1.91 |
| CC1(C)C(=O)N(c2ccc(C#N)c(C(F)(F)F)c2)C(=S)N1c1ccc2nc(OCCO)ncc2c1 [Compound 14] | 4.9 |
| CCN1CCOc2cc(N3C(=O)N(c4ccc(C#N)c(C(F)(F)F)c4)C(=O)C3(C)C)ccc2C1=O [Compound 4] | 2.19 |
| CC(F)(F)c1nc(OCCO)c2cc(N3C(=S)N(c4ccc(C#N)c(C(F)(F)F)c4)C(=O)C3(C)C)cc(F)c2n1 [Compound 49] | 1.43 |
| CCc1nc(-c2cn[nH]c2)c2cc(N3C(=S)N(c4ccc(C#N)c(C(F)(F)F)c4)C(=O)C3(C)C)cc(F)c2n1 [Compound 51] | 0.64 |
| CC1(C)C(=O)N(c2ccc(C#N)c(C(F)(F)F)c2)C(=S)N1c1ccc2nn(C3COCC3O)cc2c1 (stereo not drawn) [Compound 8] | 4.27 |
| CCc1nc(OCCO)c2cc(N3C(=S)N(c4ccc(C#N)c(C(F)F)c4)C(=O)C3(C)C)cc(F)c2n1 [Compound 50] | 3.45 |
| CCc1cc(=O)n2cc(N3C(=S)N(c4ccc(C#N)c(C(F)(F)F)c4)C(=O)C3(C)C)cc(C)c2n1 [Compound 60] | 1.83 |
| CCc1nc(OCC(=O)NC)c2cc(N3C(=S)N(c4ccc(C#N)c(C(F)(F)F)c4)C(=O)C3(C)C)cc(F)c2n1 [Compound 28] | 8.88 |
| CCc1nc2c(F)cc(N3C(=S)N(c4ccc(C#N)c(C(F)(F)F)c4)C(=O)C3(C)C)cn2c(=O)c1OCC(=O)NC [Compound 42] | 2.2 |
| CCc1cc(=O)n2cc(N3C(=S)N(c4ccc(C#N)c(C(F)(F)F)c4)C(=O)C34CCC4)cc(F)c2n1 [Compound 54] | 2.5 |
| CCc1nc(OCCO)c2cc(N3C(=S)N(c4ccc(C#N)c(C(F)(F)F)c4)C(=O)C34CCC4)ccc2n1 [Compound 17] | 0.65 |
| CCc1nc(OCCN(C)C)c2cc(N3C(=S)N(c4ccc(C#N)c(C(F)(F)F)c4)C(=O)C3(C)C)cc(F)c2n1 [Compound 24] | 3.1 |
| CCc1nc(-c2c[nH]cn2)c2cc(N3C(=S)N(c4ccc(C#N)c(C(F)(F)F)c4)C(=O)C3(C)C)cc(F)c2n1 [Compound 63] | 1.34 |
| CC1(C)C(=O)N(c2ccc(C#N)c(C(F)(F)F)c2)C(=S)N1c1cc(F)c2nc(OCCO)cc(=O)n2c1 [Compound 67] | 2.3 |
| CCc1cc(=O)n2cc(N3C(=S)N(c4cnc(C#N)c(Cl)c4)C(=O)C3(C)C)cc(F)c2n1 [Compound 75] | 0.92 |
| CCc1cc(=O)n2cc(N3C(=S)N(c4ccc(C#N)c(F)c4)C(=O)C3(C)C)cc(F)c2n1 [Compound 59] | 8.92 |
| CCc1nc2c(F)cc(N3C(=S)N(c4ccc(C#N)c(C(F)(F)F)c4)C(=O)C3(C)C)cn2c(=O)c1OCC(N)=O [Compound 43] | 3.5 |
